Where a SMILES comes first, the peptide text is derived from it. The star is where a group is joined. X1 = NC(=O)CCOCCOCCOCCOCCOCCOCCOCCOCCOCCOCCOCCOCCOCCOCCOCCOCCOCCOCCOCCOCCOCCOCCOCCOCCOCCOCCOCCOCCN*
What was measured:
[1] = system: Gαi; test: Gαi activation, pull-down of GTP-bound Gαi in AML14.3D10-CCR3 cells; format: cell-based, human; conditions: 10 μM, 8 nM CCL11
Procedure: GTP-bound Gal was detected using a commercial Gαi assay kit (Abcam, Cambridge, Mass.) with modifications. Briefly, AML14.3D10-CCR3 cells were serum-starved for 16 hours before being pretreated with […] pertussis toxin for 2 hours, 10 μM R3-2-1 for 30 minutes, or with vehicle control. Pretreated cells were then stimulated with 8 nM CCL11 or medium for 1 minute. The reaction was stopped by adding ice cold PBS. Ten (10) million cells were used for each condition. Washed cells were lysed with 1× lysis buffer following manufacturer instructions. For pull-down of active Gαi, mouse anti-GTP bound Gαi antibody was conjugated to DYNABEADS Protein G (Life Technologies, Carlsbad, Calif.) for 15 minutes at room temperature. Conjugated beads were washed 3 times with Tris-buffered saline+TWEEN® polysorbate (TBST) and incubated with cell lysates for 20 minutes at room temperature. After washing with TBST, bound proteins were eluted by boiling the beads in 2×SDS buffer for 5 minutes. Eluates were resolved by SDS-PAGE and immunoblotted using a polyclonal rabbit anti-total Gαi antibody (Cell Signaling Technology).

[2] = molecular target: T1, CCR3 (Homo sapiens, UniProt P51677); test: NMR (13C HSQC) evaluation of binding to CCR3 membrane preparations; set-up: expressed in transfected cells; host or cells: 4DE4 mouse pre-B cell lymphoma line; conditions: 10 μM R321, 1 μM CCL11, CCR3 membrane preps 0.25 mg/ml
T1 sequence (P51677 1-355): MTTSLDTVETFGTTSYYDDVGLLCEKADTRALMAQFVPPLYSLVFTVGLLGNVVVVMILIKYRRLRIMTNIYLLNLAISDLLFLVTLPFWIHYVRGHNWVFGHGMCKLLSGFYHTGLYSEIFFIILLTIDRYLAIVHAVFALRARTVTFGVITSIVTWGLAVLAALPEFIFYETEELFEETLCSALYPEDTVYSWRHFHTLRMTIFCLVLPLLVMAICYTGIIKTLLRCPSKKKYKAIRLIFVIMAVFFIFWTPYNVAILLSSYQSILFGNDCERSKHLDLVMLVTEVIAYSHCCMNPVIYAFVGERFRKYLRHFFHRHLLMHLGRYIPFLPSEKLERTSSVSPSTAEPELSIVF
Procedure: FIG. 6A to FIG. 6E show NMR evaluation of the binding of R3-2-1 and CCL11/eotaxin-1 to CCR3 membrane preparations. ^13C HSQC spectra of ^13C-reductively methylated CCR3 membrane preps (0.25 mg/ml) were recorded with 1 μM CCL11 and 10 μM R321. […] Black arrows indicate the differences in chemical shifts.
Ligand binding to GPCR induces conformational transitions in the receptor that activate G-proteins and β-arrestin recruitment. […] Because R3-2-1 is an analog of the second transmembrane helix of CCR3, it is expected that R3-2-1 competes with the native helix 2 for binding to helices 1 and 3. Binding to helix 3 may disrupt the structure and orientation of the DRY motif in intracellular loop 2, inhibiting G-proteins.

[3] = molecular target: T1, CCR3; test: Chemotaxis assay (Transwell), AML14.3D10-CCR3 cells; format: cell-based; set-up: host or cells: AML14.3D10-CCR3 (eosinophilic myelocytic cell line, kept under G418); conditions: for IC90: 4 hours
Procedure: AML14.3D10-CCR3 (ATCC, Manassas, Va.; Daugherty, et al. (1996) J. Exp. Med. 183:2349-2354) were maintained in RPMI-1640 supplemented with 10% FBS, 1.5 g/L sodium bicarbonate, 4.5 g/L glucose, 2 mM L-glutamine, 10 mM HEPES, 1 mM sodium pyruvate, 50 μM β-mercaptoethanol, and 2 mg/ml G418 in a humidified incubator with 5% CO2 at 37° C.
Cell migration was determined using a 96-well […]® system (Corning, Tewksbury, Mass.). […] The two chambers were separated by a polycarbonate filter with 5 μm pores. For AML14.3D10-CCR3 cells, 2×10^5 cells/well were resuspended in RPMI-1640+0.1% BSA and allowed to migrate for 4 hours at 37° C. For blood eosinophils, 1×10^5 cells/well were resuspended in X-VIVO 10+0.5% BSA and allowed to migrate for 3 hours at 37° C. Migrated cells were counted using a Beckman QUANTA SC flow cytometer. All experiments were performed in duplicate. Checkerboard analysis was done to distinguish chemotaxis from chemokinesis.
Primary eosinophils and the stable CCR3+eosinophilic myelocytic cell line, AML14.3D10-CCR3 (Daugherty, et al. (1996) J. Exp. Med. 183:2349-2354) undergo CCR3-mediated chemotaxis induced by multiple chemokines including eotaxin/CCL11, RANTES/CCL5, MCP-4/CCL13, and MEC/CCL28 (Daugherty, et al. (1996) J. Exp. Med. 183:2349-2354; Pan, et al. (2000) J. Immunol. 165:2943-2949).

[4] = molecular target: T1, CCR3; test: CCR3 surface expression and internalization by flow cytometry, AML14.3D10-CCR3 cells; format: cell-based; set-up: host or cells: AML14.3D10-CCR3 (eosinophilic myelocytic cell line, kept under G418)
Procedure: Error bars represent SEM. *p<0.05, compared to untreated cells; n=3.
To assess surface expression of CCR3, cells were stained using PE-conjugated anti-human CCR3 antibody (clone 5E8, BioLegend) or PE-conjugated isotype-matched control after blocking with 10% human AB serum. To determine ligand-induced CCR3 internalization, cells were incubated with various chemokines for 1 hour at 37° C., washed once in staining buffer (PBS+0.5% BSA+0.1% NaN3) before being stained as above. After antibody staining, cells were fixed in 2% paraformaldehyde and analyzed on a QUANTA SC flow cytometer (Beckman Coulter, Indianapolis, Ind.).

CC[C@H](C)[C@H](NC(=O)[C@H](Cc1c[nH]c2ccccc12)NC(=O)[C@H](Cc1ccccc1)NC(=O)[C@@H]1CCCN1C(=O)[C@H](CC(C)C)NC(=O)[C@@H](NC(=O)[C@@H](NC(=O)[C@H](CC(C)C)NC(=O)[C@H](Cc1ccccc1)NC(=O)[C@H](CC(C)C)NC(=O)[C@@H](N)CC(C)C)C(C)C)[C@@H](C)O)C(=O)N[C@@H](Cc1c[nH]cn1)C(=O)N[C@@H](Cc1ccc(O)cc1)C(=O)N[C@H](C(=O)N[C@@H](CCCNC(=N)N)C(=O)NCC(=O)N[C@@H](Cc1c[nH]cn1)C(=O)N[C@@H](CC(N)=O)C(=O)N[C@@H](Cc1c[nH]c2ccccc12)C(=O)N[C@H](C(=O)N[C@@H](Cc1ccccc1)C(=O)NCC(=O)N[C@@H](Cc1c[nH]cn1)C(=O)N[C@@H](CC(=O)O)C(=O)N[C@@H](CC(=O)O)C(=O)N[C@@H](CC(=O)O)C(=O)NCCOCCOCCOCCOCCOCCOCCOCCOCCOCCOCCOCCOCCOCCOCCOCCOCCOCCOCCOCCOCCOCCOCCOCCOCCOCCOCCOCCOCCC(N)=O)C(C)C)C(C)C [Peptide R3-2-1] (H-LLFLVTLPFWIHYVRGHNWVFGHDDD-X1; N-terminus assumed)
activation of Gαi (GTP-bound form) [1]: inhibit the activation of Gαi | binding to CCR3 by NMR chemical shift changes [2]: chemical shift changes indicative of binding | tolerance to inhibition of CCL11-induced chemotaxis ([3]; 1 μM for 24, 48 or 72 hour, CCL11 12 nM): retains it full inhibitory activity | chemotactic (agonist) activity by itself ([3]; AML14.3D10-CCR3 cells, no chemokine): not chemotactic | inhibition of CCR3-mediated chemotaxis induced by Eotaxin/CCL11, RANTES/CCL5 and MEC/CCL28 ([3]; AML14.3D10-CCR3 cells, R3-2-1 0.4, 2 or 10 μM): inhibits chemotaxis induced by Eotaxin/CCL11, RANTES/CCL5 and MEC/CCL28 in a dose-dependent fashion | IC90 ([3]; AML14.3D10-CCR3 cells, chemotaxis to CCL11/Eotaxin-1 (12 nM)): 1750 ± 200 nM | IC90 ([3]; AML14.3D10-CCR3 cells, chemotaxis to CCL24/Eotaxin-2 (20 nM)): 890 ± 120 nM | IC90 ([3]; AML14.3D10-CCR3 cells, chemotaxis to CCL26/Eotaxin-3 (100 nM)): 780 ± 100 nM | CCR3 internalization or surface accumulation on prolonged treatment ([4]; 1 μM for 24, 48 or 72 hour, with or without CCL11 (12 nM)): promotes CCR3 internalization | CCL11-induced receptor internalization ([4]; 1 μM, added concurrently with 12 nM CCL11): neither R3-2-1 (1 μM) nor R3-2-3 (1 μM) interfere with CCL11-induced receptor internalization | CCL11-induced CCR3 endocytosis ([4]; 2 or 10 μM): does not inhibit CCL11-induced CCR3 endocytosis | surface CCR3 expression in the absence of CCR3 ligand ([4]; AML14.3D10-CCR3 cells, significant at 1 μM): significantly decreases surface CCR3 expression
